Drawing on ChEMBL document CHEMBL1156553, “Prenylated dihydrochalcones from Boronia bipinnata that inhibit the malarial parasite enzyme target hemoglobinase II” (J Nat Prod, 2008), this text covers IC50 for three molecules.

The assay is described as follows: Inhibition of recombinant hemoglobinase 2.

On to `CC(C)=CCC/C(C)=C/Cc1cc(CCC(=O)c2c(O)cc(O)cc2O)ccc1O` [BIPINNATONE B], for which the IC50 (as a rule, the concentration that inhibits the measured activity by half) was 51 µM.

Take `CC(C)CC(=O)N[C@H](C(=O)N[C@H](C(=O)N[C@@H](CC(C)C)[C@@H](O)CC(=O)N[C@@H](C)C(=O)N[C@@H](CC(C)C)[C@@H](O)CC(=O)O)C(C)C)C(C)C` [PEPSTATIN]: the IC50 was 0.003 µM.

As to `CC(C)=CCC/C(C)=C/CC/C(C)=C/Cc1cc(CCC(=O)c2c(O)cc(O)cc2O)ccc1O` [BIPINNATONE A], the IC50 was found to be 64 µM.
